For ten compounds, minimal effective concentration results are on record in patent US11331369B2, “Endoparasitic depsipeptides” (Zoetis Services LLC, priority 2017, dated 2022).

The test system of this test is microfilariae of Dirofilaria immitis. The test is described as follows: Dirofilaria immitis, Microfilaria (DiMF) In vitro Assay. Type of test: cell-based. Particulars: 72 h, read-out: DiMF Minimum Effective Dose (MED), approximately 72 hours incubation, microfilariae assessed for survival or paralysis.
For the compound `CC(C)C[C@H]1C(=O)O[C@H](Cc2ccc(Cn3nccc3-c3ccccc3)cc2)C(=O)N(C)[C@@H](CC(C)C)C(=O)O[C@H](C)C(=O)N(C)[C@@H](CC(C)C)C(=O)O[C@H](Cc2ccccc2)C(=O)N(C)[C@@H](CC(C)C)C(=O)O[C@H](C)C(=O)N1C` [Example 2-67, (3S,6R,9S,12R,15S,18R,21S,24R)-6-benzyl-3,9,15,21-tetraisobutyl-4,10,12,16,22,24-hexamethyl-18-(4-((5-phenyl-1H-pyrazol-1-yl)methyl)benzyl)-1,7,13,19-tetraoxa-4,10,16,22-tetraazacyclotetracosan-2,5,8,11,14,17,20,23-octaone], the minimal effective concentration is 0.01 to 0.1 µM.

For `Cc1ncn(Cc2ccc(C[C@H]3OC(=O)[C@H](CC(C)C)N(C)C(=O)[C@@H](C)OC(=O)[C@H](CC(C)C)N(C)C(=O)[C@@H](Cc4ccccc4)OC(=O)[C@H](CC(C)C)N(C)C(=O)[C@@H](C)OC(=O)[C@H](CC(C)C)N(C)C3=O)cc2)c1C` [Example 8-11, (3S,6R,9S,12R,15S,18R,21S,24R)-6-benzyl-18-(4-((4,5-dimethyl-1H-imidazol-1-yl)methyl)benzyl)-3,9,15,21-tetraisobutyl-4,10,12,16,22,24-hexamethyl-1,7,13,19-tetraoxa-4,10,16,22-tetraazacyclotetracosan-2,5,8,11,14,17,20,23-octaone], the minimal effective concentration lay in the range of 0.01 to 0.1 µM.

For `CC(C)C[C@H]1C(=O)O[C@H](Cc2cccc(Cn3cc(O)cn3)c2)C(=O)N(C)[C@@H](CC(C)C)C(=O)O[C@H](C)C(=O)N(C)[C@@H](CC(C)C)C(=O)O[C@H](Cc2cccc(Cn3cc(O)cn3)c2)C(=O)N(C)[C@@H](CC(C)C)C(=O)O[C@H](C)C(=O)N1C` [Example 4-17, (3S,6R,9S,12R,15S,18R,21S,24R)-6,18-bis(3-((4-hydroxy-1H-pyrazol-1-yl)methyl)benzyl)-3,9,15,21-tetraisobutyl-4,10,12,16,22,24-hexamethyl-1,7,13,19-tetraoxa-4,10,16,22-tetraazacyclotetracosan-2,5,8,11,14,17,20,23-octaone], the minimal effective concentration lay within 0.01 to 0.1 µM.

As for `CC(C)C[C@H]1C(=O)O[C@H](Cc2ccc(Cn3cc(S(=O)(=O)N4CCOCC4)cn3)cc2)C(=O)N(C)[C@@H](CC(C)C)C(=O)O[C@H](C)C(=O)N(C)[C@@H](CC(C)C)C(=O)O[C@H](Cc2ccccc2)C(=O)N(C)[C@@H](CC(C)C)C(=O)O[C@H](C)C(=O)N1C` [Example 2-23, (3S,6R,9S,12R,15S,18R,21S,24R)-6-benzyl-3,9,15,21-tetraisobutyl-4,10,12,16,22,24-hexamethyl-18-(4-((4-(morpholinosulfonyl)-1H-pyrazol-1-yl)methyl)benzyl)-1,7,13,19-tetraoxa-4,10,16,22-tetraazacyclotetracosan-2,5,8,11,14,17,20,23-octaone], the minimal effective concentration lay in the range of 0.01 to 0.1 µM.

As to `CC(C)C[C@H]1C(=O)O[C@H](Cc2cccc(Cn3cc(F)cn3)c2)C(=O)N(C)[C@@H](CC(C)C)C(=O)O[C@H](C)C(=O)N(C)[C@@H](CC(C)C)C(=O)O[C@H](Cc2ccccc2)C(=O)N(C)[C@@H](CC(C)C)C(=O)O[C@H](C)C(=O)N1C` [Example 5-1, (3S,6R,9S,12R,15S,18R,21S,24R)-6-benzyl-18-(3-((4-fluoro-1H-pyrazol-1-yl)methyl)benzyl)-3,9,15,21-tetraisobutyl-4,10,12,16,22,24-hexamethyl-1,7,13,19-tetraoxa-4,10,16,22-tetraazacyclotetracosan-2,5,8,11,14,17,20,23-octaone], the minimal effective concentration was in the range of 0.001 to 0.01 µM.

Regarding `Cc1nn(Cc2ccc(C[C@H]3OC(=O)[C@H](CC(C)C)N(C)C(=O)[C@@H](C)OC(=O)[C@H](CC(C)C)N(C)C(=O)[C@@H](Cc4ccccc4)OC(=O)[C@H](CC(C)C)N(C)C(=O)[C@@H](C)OC(=O)[C@H](CC(C)C)N(C)C3=O)cc2)c(C)c1S(=O)(=O)N1CCCC1` [Example 2-40, (3S,6R,9S,12R,15S,18R,21S,24R)-6-benzyl-18-(4-((3,5-dimethyl-4-(pyrrolidin-1-ylsulfonyl)-1H-pyrazol-1-yl)methyl)benzyl)-3,9,15,21-tetraisobutyl-4,10,12,16,22,24-hexamethyl-1,7,13,19-tetraoxa-4,10,16,22-tetraazacyclotetracosan-2,5,8,11,14,17,20,23-octaone], the minimal effective concentration was 0.01 to 0.1 µM.

For the compound `CC(C)C[C@H]1C(=O)O[C@H](Cc2ccc(Cn3nc(CO)cc3CO)cc2)C(=O)N(C)[C@@H](CC(C)C)C(=O)O[C@H](C)C(=O)N(C)[C@@H](CC(C)C)C(=O)O[C@H](Cc2ccc(Cn3nc(C#N)cc3C#N)cc2)C(=O)N(C)[C@@H](CC(C)C)C(=O)O[C@H](C)C(=O)N1C` [Example 1a-2, 1-(4-(((2R,5S,8R,11S,14R,17S,20R,23S)-14-(4-((3,5-bis(hydroxymethyl)-1H-pyrazol-1-yl)methyl)benzyl)-5,11,17,23-tetraisobutyl-4,8,10,16,20,22-hexamethyl-3,6,9,12,15,18,21,24-octaoxo-1,7,13,19-tetraoxa-4,10,16,22-tetraazacyclotetracosan-2-yl)methyl)benzyl)-1H-pyrazole-3,5-dicarbonitrile], the minimal effective concentration was 0.001 to 0.01 µM.

For the compound `CC(C)C[C@H]1C(=O)O[C@H](Cc2ccc(Cn3ccnc3-c3cncs3)cc2)C(=O)N(C)[C@@H](CC(C)C)C(=O)O[C@H](C)C(=O)N(C)[C@@H](CC(C)C)C(=O)O[C@H](Cc2ccc(Cn3ccnc3-c3cncs3)cc2)C(=O)N(C)[C@@H](CC(C)C)C(=O)O[C@H](C)C(=O)N1C` [Example 6-18, (3S,6R,9S,12R,15S,18R,21S,24R)-3,9,15,21-tetraisobutyl-4,6,10,16,18,22-hexamethyl-12,24-bis(4-((2-(thiazol-5-yl)-1H-imidazol-1-yl)methyl)benzyl)-1,7,13,19-tetraoxa-4,10,16,22-tetraazacyclotetracosan-2,5,8,11,14,17,20,23-octaone], the minimal effective concentration is 0.01 to 0.1 µM.

Take `Cc1nn(Cc2ccc(C[C@H]3OC(=O)[C@H](CC(C)C)N(C)C(=O)[C@@H](C)OC(=O)[C@H](CC(C)C)N(C)C(=O)[C@@H](Cc4ccc(Cn5nc(C6CC6)cc5C5CC5)cc4)OC(=O)[C@H](CC(C)C)N(C)C(=O)[C@@H](C)OC(=O)[C@H](CC(C)C)N(C)C3=O)cc2)cc1CO` [Example 1a-8, (3S,6R,9S,12R,15S,18R,21S,24R)-6-(4-((3,5-dicyclopropyl-1H-pyrazol-1-yl)methyl)benzyl)-18-(4-((4-(hydroxymethyl)-3-methyl-1H-pyrazol-1-yl)methyl)benzyl)-3,9,15,21-tetraisobutyl-4,10,12,16,22,24-hexamethyl-1,7,13,19-tetraoxa-4,10,16,22-tetraazacyclotetracosan-2,5,8,11,14,17,20,23-octaone]: the minimal effective concentration was 0.01 to 0.1 µM.

For `Cc1nn(Cc2ccc(C[C@H]3OC(=O)[C@H](CC(C)C)N(C)C(=O)[C@@H](C)OC(=O)[C@H](CC(C)C)N(C)C(=O)[C@@H](Cc4ccccc4)OC(=O)[C@H](CC(C)C)N(C)C(=O)[C@@H](C)OC(=O)[C@H](CC(C)C)N(C)C3=O)cc2)cc1Br` [Example 2-16, (3S,6R,9S,12R,15S,18R,21S,24R)-6-benzyl-18-(4-((4-bromo-3-methyl-1H-pyrazol-1-yl)methyl)benzyl)-3,9,15,21-tetraisobutyl-4,10,12,16,22,24-hexamethyl-1,7,13,19-tetraoxa-4,10,16,22-tetraazacyclotetracosan-2,5,8,11,14,17,20,23-octaone], the minimal effective concentration was in the range of 0.01 to 0.1 µM.
